Measured values from patent publication US8785436B2, “1,3-oxazines as BACE 1 and/or BACE2 inhibitors” (Hoffmann-La Roche Inc., priority 2011, dated 2014).

What was measured:
BACE1 = biological target: T1, BACE1 (Homo sapiens, UniProt P56817); assay: Cellular Aβ-lowering assay b) (Abeta 40 AlphaLISA, HEK293 APP cells); format: cell-based; settings: 18-20 hrs incubation, read-out: BACE1 cell act. Aβ40 IC50
T1 construct: Human HEK293 cells which are stably transfected with a vector expressing a cDNA of the human APP wt gene (APP695); endogenous in cells; host or cells: HEK293 cells stably expressing human APP695 wt
T1 sequence (P56817 46-501): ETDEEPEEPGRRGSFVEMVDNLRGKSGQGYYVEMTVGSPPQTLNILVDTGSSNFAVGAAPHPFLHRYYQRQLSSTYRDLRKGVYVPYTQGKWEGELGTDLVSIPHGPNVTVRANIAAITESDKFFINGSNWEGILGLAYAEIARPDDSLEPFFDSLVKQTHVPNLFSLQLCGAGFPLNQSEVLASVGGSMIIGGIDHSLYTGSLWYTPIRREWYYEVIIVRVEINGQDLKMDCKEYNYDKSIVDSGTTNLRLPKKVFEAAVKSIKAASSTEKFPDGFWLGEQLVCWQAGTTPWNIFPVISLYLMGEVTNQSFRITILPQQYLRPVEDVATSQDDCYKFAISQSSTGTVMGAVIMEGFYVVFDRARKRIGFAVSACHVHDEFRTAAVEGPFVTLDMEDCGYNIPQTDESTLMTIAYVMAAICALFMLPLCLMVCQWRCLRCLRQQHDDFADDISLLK
Experimental: Cellular Aβ-Lowering Assay:
b) Alternatively, the Abeta 40 AlphaLISA Assay can be used. The HEK293 APP cells were seeded in 96 well Microtiter plates in cell culture medium (Iscove's, plus 10% (v/v) fetal bovine serum, penicillin/streptomycin) to about 80% confluency and the compounds were added at a 3× concentration in 1/3 volume of culture medium (final DMSO concentration was kept at 1% v/v). After 18-20 hrs incubation at 37° C. and 5% CO2 in a humidified incubator, the culture supernatants were harvested for the determination of Aβ 40 concentrations using Perkin-Elmer Human Amyloid beta 1-40 (high specificity) Kit (Cat# AL275C).
In a Perkin-Elmer White Optiplate-384 (Cat#6007290), 2 ul culture supernatants were combined with 2 μl of a 10× AlphaLISA Anti-hAβ Acceptor beads+Biotinylated Antibody Anti-Aβ 1-40 Mix (50 μg/mL/5 nM). After 1 hour room temperature incubation, 16 μl of a 1.25× preparation of Streptavidin (SA) Donor beads (25 μg/mL) were added and incubated for 30 minutes in the Dark. Light Emission at 615 nm was then recorded using EnVision-Alpha Reader. Levels of Aβ 40 in the culture supernatants were calculated as percentage of maximum signal (cells treated with 1% DMSO without inhibitor). The IC50 values were calculated using the Excel XLfit software.

BACE2 = biological target: T2, BACE2 (Rattus norvegicus, UniProt Q6IE75); assay: BACE inhibition by measuring cellular TMEM27 cleavage (INS-TMEM27 cells, ELISA); format: cell-based; settings: INS-TMEM27 (Ins1e rat) cells, shed human TMEM27 by ELISA; read-out: BACE2 cell act. IC50
T2 construct: endogenous cellular BACE2 in the Ins1e rat cell line; endogenous in cells; host or cells: INS-TMEM27 (INS1e-derived rat cell line with TetOn-inducible full-length hTMEM27)
T2 sequence (Q6IE75 63-514): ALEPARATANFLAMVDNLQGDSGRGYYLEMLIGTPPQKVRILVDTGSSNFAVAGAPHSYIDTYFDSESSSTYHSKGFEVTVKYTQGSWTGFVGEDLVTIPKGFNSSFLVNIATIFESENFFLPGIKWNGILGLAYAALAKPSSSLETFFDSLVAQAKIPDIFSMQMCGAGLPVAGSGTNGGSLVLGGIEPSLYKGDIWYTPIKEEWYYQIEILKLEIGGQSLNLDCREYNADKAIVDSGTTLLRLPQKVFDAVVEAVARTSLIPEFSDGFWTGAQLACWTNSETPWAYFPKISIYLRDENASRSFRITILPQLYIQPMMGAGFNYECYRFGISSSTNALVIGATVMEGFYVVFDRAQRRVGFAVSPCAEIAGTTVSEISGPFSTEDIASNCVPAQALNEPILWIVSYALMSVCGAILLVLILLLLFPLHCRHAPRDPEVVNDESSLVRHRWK
Text: Assay for BACE Inhibition by Measuring Cellular TMEM27 Cleavage:
The assay uses the principle of inhibition of human TMEM27 cleavage by endogenous cellular BACE2 in the Ins1e rat cell line and shedding from the cell surface into the culture medium, followed by detection in an ELISA assay Inhibition of BACE2 prevents the cleavage and shedding in a dose-dependent manner.
The stable cell line “INS-TMEM27” represents an INS1e-derived cell line with inducible expression (using the TetOn system) of full-length hTMEM27 in a doxycycline-dependent manner. The cells are cultured throughout the experiment in RPMI1640+Glutamax (Invitrogen) Penicillin/Streptomycin, 10% Fetal bovine serum, […], […], 100 micrograms/ml G418 and 100 microgram/ml hygromycin and are grown inadherent culture at 37° C. in a standard CO2 cell culture incubator.
INS-TMEM27 cells are seeded in 96-well plates. After 2 days in culture, BACE2 inhibitor is added in a range of concentrations as required by the assay and after a further two hours, doxycycline is added to a final concentration of 500 ng/ml. The cells are incubated for a further 46 hours and the supernatant harvested for detection of shed TMEM27.
An ELISA assay (using a pair of mouse anti-human-TMEM27 antibodies, raised against the extracellular domain of TMEM27) is used for detection of TMEM27 in the culture medium. An EC50 for BACE2 inhibition is calculated using the ELISA readout for each inhibitor concentration with standard curve-fitting software such as XLFit for the Excel spreadsheet program.

In the case of `CC1(C)OC(N)=N[C@](C)(c2cc(Nc3cccc(C(F)(F)F)n3)ccc2F)C1(F)F` [Example 47, (R)-5,5-Difluoro-4-[2-fluoro-5-(6-trifluoromethyl-pyridin-2-ylamino)-phenyl]-4,6,6-trimethyl-5,6-dihydro-4H-[1,3]oxazin-2-ylamine], the IC50 (BACE1) is reported as 4170 nM and the IC50 (BACE2) is reported as 2750 nM.

`C[C@]1([C@@H]2C[C@H]2C(=O)Nc2cccc3cc(Cl)cnc23)N=C(N)OCC1(F)F` [Example 63, (1R,2R)-((R)-2-Amino-5,5-difluoro-4-methyl-5,6-dihydro-4H-[1,3]oxazin-4-yl)-cyclopropanecarboxylic acid(3-chloro-quinolin-8-yl)-amide] was tested, and the IC50 (BACE1) was 360 nM and the IC50 (BACE2) was 1350 nM.

`CCc1ccc(Cc2nc3ccc([C@@]4(C)N=C(N)OCC4(F)F)cc3[nH]2)cc1` [Example 55, (R)-4-[2-(4-Ethyl-benzyl)-3H-benzoimidazol-5-yl]-5,5-difluoro-4-methyl-5,6-dihydro-4H-[1,3]oxazin-2-ylamine] was tested, and the IC50 (BACE1) was 1450 nM.

`NC1=NC(c2cc(-c3cncc(Cl)c3)ccc2F)(C(F)F)CCO1` (centres unmarked) [Example 53, 4-[5-(5-Chloro-pyridin-3-yl)-2-fluoro-phenyl]-4-difluoromethyl-5,6-dihydro-4H-[1,3]oxazin-2-ylamine] showed an IC50 (BACE1) of 502 nM.

For `C[C@]1(c2cc(-c3cncnc3)c(F)cc2F)N=C(N)OCC1(F)F` [Example 33, (R)-4-(2,4-Difluoro-5-pyrimidin-5-yl-phenyl)-5,5-difluoro-4-methyl-5,6-dihydro-4H-[1,3]oxazin-2-ylamine], the IC50 (BACE1) was 380 nM.

Compound `NC1=N[C@@](c2cc(-c3cncc(Cl)c3)ccc2F)(C(F)F)CCO1` [Example 54B, (S)-4-[5-(5-Chloro-pyridin-3-yl)-2-fluoro-phenyl]-4-difluoromethyl-5,6-dihydro-4H-[1,3]oxazin-2-ylamine] has an IC50 (BACE1) of 220 nM.
